Test results published in patent US20260274892A1, “MACROCYCLIC BROAD SPECTRUM ANTIBIOTICS” (RQx Pharmaceuticals, Inc., priority 2017, published 2026).

Assays:
[1] = test system: Methicillin Resistant Staphylococcus aureus strain USA 200; assay: Minimum inhibitory concentration (MIC), CLSI broth micro-dilution, S. aureus; type: cell-based; details: Staphylococcus aureus, MRSA / USA200; Table 6; MRSA USA 200; cation adjusted Mueller Hinton Broth + 0.002% Tween-80; 35° C., 22 hours
Method: In vitro antimicrobial activity of each compound was determined by measuring minimal inhibitor concentrations (MICs) using the broth micro-dilution technique as approved by the Clinical and Laboratory Standards Institute (CLSI) (Methods for Dilution Antimicrobial Susceptibility Tests for Bacteria that Grow Aerobically; Approved Standard-Eighth Edition. CLSI document M07-A8. Wayne, PA: Clinical and Laboratroy Standards; 2009). Antibacterial activity was measure against two strains of bacteria: a Methicillin Resistant Staphylococcus aureus strain USA 200, (S. aureus) and Escherichia coli ATCC 25922 (E. coli), a clinically relevant Gram-negative strain. Cells were inoculated onto plates of Trypyticase Soy Agar or Luria Agar respectively and grown at 35° C. for 20 hours. Inocula suspensions were prepared by scraping cells into 1 mL of testing media (cation adjusted Mueller Hinton Broth supplemented with 0.002% v/v Tween-80) and diluting to a final OD600nm of 0.01.
Test compounds were prepared in DMSO at a concentration of 10 mg/mL. In protocol 1, the compound stocks were diluted into testing media at a concentration of 64 µg/ml and serial 2-fold dilutions were made in the same media, in 96-well U bottom microtiter dishes, for a total of 10 compound concentrations. In protocol 2, the compound stocks were diluted into testing media at a concentration of 4 µg/mL and serial 2-fold dilutions were made in the same media, in 96-well U bottom microtiter dishes, for a total of 10 compound concentrations. In protocol 3, compound stocks were diluted into testing media at a concentration of 0.5 μg/mL, with serial 2-fold dilutions conducted as described above. In protocol 4, compound stocks were diluted into testing media at a concentration of […], with serial 2-fold dilutions conducted as described above. Inocula suspensions were added to the 2-fold serial dilutions of test compounds to a final density of GD OD600nm of 0.0005 and incubated at 35° C. for 22 hours.

[2] = test system: Escherichia coli ATCC 25922; assay: Minimum inhibitory concentration (MIC), CLSI broth micro-dilution, E. coli; type: cell-based; details: Escherichia coli, ATCC25922, 22 h, Table 6, cation adjusted Mueller Hinton Broth + 0.002% Tween-80, 35° C.
Outline: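 Antibacterial potency is measured as MIC by the CLSI broth dilution method. Bacteria at OD600 0.0005 in Tween-80-supplemented cation-adjusted Mueller Hinton broth face ten twofold compound dilutions for 22 h at 35° C.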

Row | SMILES | MIC [1] [µM] | MIC [2] [µM]
1 | CCCC(CCC)Oc1ccc(-c2nc(C)c(C(=O)N[C@@H](CCN)C(=O)N(C)[C@@H]3C(=O)N[C@@H](C)C(=O)N[C@H](C(=O)NCC#N)Cc4ccc(OCCN)c(c4)-c4cc3ccc4OCCN)c(C)n2)cc1 (racemic) [Compound 341, rac-(8S,11S,14S)-3,18-bis(2-aminoethoxy)-N-(cyanomethyl)-11-methyl-14-[methyl-[rac-(2S)-4-amino-2-[[4,6-dimethyl-2-[4-(1-propylbutoxy)phenyl]pyrimidine-5-carbonyl]amino]butanoyl]amino]-10,13-dioxo-9,12-diazatricyclo[13.3.1.12,6]icosa-1(18),2(20),3,5,15(19),16-hexaene-8-carboxamide] | 0.016 | 0.13
2 | CCCCc1ccc(-c2ccc(C(=O)N[C@@H](CCN)C(=O)N(C)[C@@H]3C(=O)N[C@@H](C)C(=O)N[C@H](C(=O)NCC#N)Cc4ccc(OCCN)c(c4)-c4cc3ccc4OCCN)c(C)n2)cc1 (racemic) [Compound 207, rac-(8S,11S,14S)-3,18-bis(2-aminoethoxy)-N-(cyanomethyl)-11-methyl-14-[methyl-[rac-(2S)-4-amino-2-[[6-(4-butylphenyl)-2-methyl-pyridine-3-carbonyl]amino]butanoyl]amino]-10,13-dioxo-9,12-diazatricyclo[13.3.1.12,6]icosa-1(18),2(20),3,5,15(19),16-hexaene-8-carboxamide] | 0.017 | 0.1
3 | Cc1nc(-c2ccc(N3CCCCCC3)cc2)nc(C)c1C(=O)N[C@@H](CCN)C(=O)N(C)[C@@H]1C(=O)N[C@@H](C)C(=O)N[C@H](C(=O)NCC#N)Cc2ccc(OCCN)c(c2)-c2cc1ccc2OCCN (racemic) [Compound 325, rac-(8S,11S,14S)-3,18-bis(2-aminoethoxy)-N-(cyanomethyl)-11-methyl-14-[methyl-[rac-(2S)-4-amino-2-[[2-[4-(azepan-1-yl)phenyl]-4,6-dimethyl-pyrimidine-5-carbonyl]amino]butanoyl]amino]-10,13-dioxo-9,12-diazatricyclo[13.3.1.12,6]icosa-1(18),2(20),3,5,15(19),16-hexaene-8-carboxamide] | 0.016 | 0.13
4 | Cc1nc(-c2ccc(OCCC(C)(C)C)cc2)nc(C)c1C(=O)N[C@@H](CCN)C(=O)N(C)[C@@H]1C(=O)N[C@@H](C)C(=O)N[C@H](C(=O)NCC#N)Cc2ccc(O)c(c2)-c2cc1ccc2OCCN (racemic) [Compound 539, rac-(8S,11S,14S)-18-(2-aminoethoxy)-N-(cyanomethyl)-3-hydroxy-11-methyl-14-[methyl-[rac-(2S)-4-amino-2-[[2-[4-(3,3-dimethylbutoxy)phenyl]-4,6-dimethyl-pyrimidine-5-carbonyl]amino]butanoyl]amino]-10,13-dioxo-9,12-diazatricyclo[13.3.1.12,6]icosa-1(18),2(20),3,5,15(19),16-hexaene-8-carboxamide] | 0.023 | 0.15
5 | CC(C)=Cc1ccc(C#Cc2nc(C)c(C(=O)N[C@@H](CCN)C(=O)N(C)[C@@H]3C(=O)N[C@@H](C)C(=O)N[C@H](C(=O)NCC#N)Cc4ccc(OCCN)c(c4)-c4cc3ccc4OCCN)c(C)n2)cc1 (racemic) [Compound 313, rac-(8S,11S,14S)-3,18-bis(2-aminoethoxy)-N-(cyanomethyl)-11-methyl-14-[methyl-[rac-(2S)-4-amino-2-[[4,6-dimethyl-2-[2-[4-(2-methylprop-1-enyl)phenyl]ethynyl]pyrimidine-5-carbonyl]amino]butanoyl]amino]-10,13-dioxo-9,12-diazatricyclo[13.3.1.12,6]icosa-1(18),2(20),3,5,15(19),16-hexaene-8-carboxamide] | 0.016 | 0.13
6 | Cc1nc(-c2ccc(CC3CCC3)cc2)ncc1C(=O)N[C@@H](CCN)C(=O)N(C)[C@@H]1C(=O)N[C@@H](C)C(=O)N[C@H](C(=O)NCC#N)Cc2ccc(OCCN)c(c2)-c2cc1ccc2OCCN (racemic) [Compound 217, rac-(8S,11S,14S)-3,18-bis(2-aminoethoxy)-N-(cyanomethyl)-11-methyl-14-[methyl-[rac-(2S)-4-amino-2-[[2-[4-(cyclobutylmethyl)phenyl]-4-methyl-pyrimidine-5-carbonyl]amino]butanoyl]amino]-10,13-dioxo-9,12-diazatricyclo[13.3.1.12,6]icosa-1(18),2(20),3,5,15(19),16-hexaene-8-carboxamide] | 0.0082 | 0.099
7 | Cc1nc(C#Cc2ccc(C(C)(C)C)cc2)nc(C)c1C(=O)N[C@@H](CCN)C(=O)N(C)[C@@H]1C(=O)N[C@@H](C)C(=O)N[C@H](C(=O)NCC#N)Cc2ccc(OCCN)c(c2)-c2cc1ccc2OCCN (racemic) [Compound 311, rac-(8S,11S,14S)-3,18-bis(2-aminoethoxy)-N-(cyanomethyl)-11-methyl-14-[methyl-[rac-(2S)-4-amino-2-[[2-[2-(4-tert-butylphenyl)ethynyl]-4,6-dimethyl-pyrimidine-5-carbonyl]amino]butanoyl]amino]-10,13-dioxo-9,12-diazatricyclo[13.3.1.12,6]icosa-1(18),2(20),3,5,15(19),16-hexaene-8-carboxamide] | 1 | 8.2

More lines, now with the values ahead:

Row | MIC [1] [µM] | MIC [2] [µM] | SMILES
8 | 0.063 | 1.5 | Cc1nc(-c2ccc(OC3CCCCC3)cc2)nc(C)c1C(=O)N[C@@H](CNC(N)=O)C(=O)N(C)[C@@H]1C(=O)N[C@@H](C)C(=O)N[C@H](C(=O)NCC#N)Cc2ccc(OCCN)c(c2)-c2cc1ccc2OCCN [Compound 499, (8S,11S,14S)-3,18-bis(2-aminoethoxy)-N-(cyanomethyl)-14-[[(2S)-2-[[2-[4-(cyclohexoxy)phenyl]-4,6-dimethyl-pyrimidine-5-carbonyl]amino]-3-ureido-propanoyl]-methyl-amino]-11-methyl-10,13-dioxo-9,12-diazatricyclo[13.3.1.12,6]icosa-1(18),2(20),3,5,15(19),16-hexaene-8-carboxamide]
9 | 0.083 | 0.71 | Cc1nc(-c2ccc(C(C)(C)C)cc2)ncc1C(=O)N[C@@H](CCO)C(=O)N(C)[C@@H]1C(=O)N[C@@H](C)C(=O)N[C@H](C(=O)NCC#N)Cc2ccc(OCCN)c(c2)-c2cc1ccc2OCCN (racemic) [Compound 459, rac-(8S,11S,14S)-3,18-bis(2-aminoethoxy)-N-(cyanomethyl)-11-methyl-14-[methyl-[rac-(2S)-2-[[2-(4-tert-butylphenyl)-4-methyl-pyrimidine-5-carbonyl]amino]-4-hydroxy-butanoyl]amino]-10,13-dioxo-9,12-diazatricyclo[13.3.1.12,6]icosa-1(18),2(20),3,5,15(19),16-hexaene-8-carboxamide]
10 | 0.26 | 1 | CCCCCCCc1ccc(C(=O)N[C@@H](CCN)C(=O)N(C)[C@@H]2C(=O)N[C@@H](C)C(=O)N[C@H](C(=O)NCC#N)Cc3ccc(OCCN)c(c3)-c3cc2ccc3OCCN)c(OCC(=O)O)c1 (racemic) [Compound 379, 2-[5-heptyl-2-[[rac-(1S)-3-amino-1-[methyl-[rac-(7S,10S,13S)-3,18-bis(2-aminoethoxy)-13-(cyanomethylcarbamoyl)-10-methyl-8,11-dioxo-9,12-diazatricyclo[13.3.1.12,6]icosa-1(19),2,4,6(20),15,17-hexaen-7-yl]carbamoyl]propyl]carbamoyl]phenoxy]acetic acid]
11 | 0.013 | 0.27 | CCCCCCc1ccc2nc(C)c(C(=O)N[C@@H](CCN)C(=O)N(C)[C@@H]3C(=O)N[C@@H](C)C(=O)N[C@H](C(=O)NCC#N)Cc4ccc(OCCN)c(c4)-c4cc3ccc4OCCN)cc2c1 (racemic) [Compound 395, rac-(8S,11S,14S)-3,18-bis(2-aminoethoxy)-N-(cyanomethyl)-11-methyl-14-[methyl-[rac-(2S)-4-amino-2-[(6-hexyl-2-methyl-quinoline-3-carbonyl)amino]butanoyl]amino]-10,13-dioxo-9,12-diazatricyclo[13.3.1.12,6]icosa-1(18),2(20),3,5,15(19),16-hexaene-8-carboxamide]
12 | 0.047 | 0.25 | CCCCC1(Oc2ccc(-c3nc(C)c(C(=O)N[C@@H](CCN)C(=O)N(C)[C@@H]4C(=O)N[C@@H](C)C(=O)N[C@H](C(=O)NCC#N)Cc5ccc(OCCN)c(c5)-c5cc4ccc5OCCN)c(C)n3)cc2)CC1 (racemic) [Compound 347, rac-(8S,11S,14S)-3,18-bis(2-aminoethoxy)-N-(cyanomethyl)-11-methyl-14-[methyl-[rac-(2S)-4-amino-2-[[2-[4-(1-butylcyclopropoxy)phenyl]-4,6-dimethyl-pyrimidine-5-carbonyl]amino]butanoyl]amino]-10,13-dioxo-9,12-diazatricyclo[13.3.1.12,6]icosa-1(18),2(20),3,5,15(19),16-hexaene-8-carboxamide]
